Measurements taken from the NIST ThermoML archive (doi:10.1016/j.fluid.2010.03.042).

Experiment: xn = mol fraction of the nth substance listed
Conditions: Liquid, Vibrating tube method

CCCCO [butan-1-ol] + O=C=O
Conditions | mass density [kg/m3]
313.22 K, x2 = 0.1294 | 806.8
313.22 K, x2 = 0.2204 | 816.8
313.22 K, x2 = 0.2354 | 818.6
313.22 K, x2 = 0.3409 | 823.7
313.22 K, x2 = 0.4311 | 826.1
313.22 K, x2 = 0.5847 | 827.7
313.22 K, x2 = 0.8543 | 797
363.17 K, x2 = 0.1186 | 711.3
363.17 K, x2 = 0.1985 | 762
363.17 K, x2 = 0.2821 | 764.7
363.17 K, x2 = 0.3623 | 765.5
363.17 K, x2 = 0.4604 | 765.5
363.17 K, x2 = 0.5637 | 760.6
363.17 K, x2 = 0.6867 | 750.9
363.17 K, x2 = 0.7105 | 745.8
363.17 K, x2 = 0.7597 | 726.6

CCC(C)O (centres undefined) [butan-2-ol] + O=C=O
Conditions | mass density [kg/m3]
313.21 K, x2 = 0.166 | 795.6
313.21 K, x2 = 0.2247 | 807.4
313.21 K, x2 = 0.3339 | 813.7
313.21 K, x2 = 0.435 | 816.8
313.21 K, x2 = 0.5177 | 818.9
313.21 K, x2 = 0.6282 | 818.5
313.21 K, x2 = 0.7453 | 817.2
313.21 K, x2 = 0.7457 | 817.5
313.21 K, x2 = 0.8604 | 815.4
313.21 K, x2 = 0.9197 | 813.8
333.12 K, x2 = 0.137 | 771.6
333.12 K, x2 = 0.2174 | 782.3
333.12 K, x2 = 0.3029 | 786.1
333.12 K, x2 = 0.3944 | 790.2
333.12 K, x2 = 0.4533 | 791.8
333.12 K, x2 = 0.5642 | 790.7
333.12 K, x2 = 0.6485 | 787.2
333.12 K, x2 = 0.7937 | 775.5
333.12 K, x2 = 0.8376 | 758.6
363.06 K, x2 = 0.1273 | 743.6
363.06 K, x2 = 0.1978 | 746.7
363.06 K, x2 = 0.2588 | 747.7
363.06 K, x2 = 0.2793 | 748.3
363.06 K, x2 = 0.3584 | 743.8
363.06 K, x2 = 0.4344 | 738.3
363.06 K, x2 = 0.5565 | 709.3
363.06 K, x2 = 0.6978 | 647.2
363.06 K, x2 = 0.7871 | 611.7
